ChEMBL document CHEMBL1201862, “PubChem BioAssay data set” (2004)
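All cell lines were grown in 96-well plates and treated with compound for 48 hours. Abbreviation: GI50, concentration required for 50% inhibition of growth.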 Activity calls are given as the source filed them. Rule as the data show it: active = GI50 up to about 1.1 µM and inactive = higher.

Tests used:
Experiment in all cases: growth of human tumour cells (NCI), 48 h
[1] = tested on: COLO 205
[2] = tested on: UACC-257
[3] = tested on: Malme-3M
[4] = tested on: ACHN
[5] = tested on: SF-295
[6] = tested on: K562
[7] = tested on: UACC-62
[8] = tested on: SN12C
[9] = tested on: CAKI-1
[10] = tested on: OVCAR-4
[11] = tested on: NCI/ADR-RES
[12] = tested on: SNB-19
[13] = tested on: DU-145
[14] = tested on: A549
[15] = tested on: SF-539
[16] = tested on: NCI-H460
[17] = tested on: HCT-15
[18] = tested on: SF-268
[19] = tested on: BT-549
[20] = tested on: LOX IMVI

Row | SMILES | GI50 [1] | GI50 [2] | GI50 [3] | GI50 [4] | GI50 [5] | GI50 [6] | GI50 [7] | GI50 [8] | GI50 [9] | GI50 [10] | GI50 [11] | GI50 [12] | GI50 [13] | GI50 [14] | GI50 [15] | GI50 [16] | GI50 [17] [µM] | GI50 [18] | GI50 [19] | GI50 [20]
1 | COc1ccc(/C=C(\C#N)c2ccccn2)cc1OC | 69.2 µM (inactive) | > 100 µM (inactive) | 46.8 µM (inactive) | 55.8 µM (inactive) | 26.8 µM (inactive) | 85.5 µM (inactive) | 58.7 µM (inactive) | 53 µM (inactive) | 60.7 µM (inactive) | 73.1 µM (inactive) | 20.4 µM (inactive) | 39.8 µM (inactive) | 32.1 µM (inactive) | 41.5 µM (inactive) | 31.9 µM (inactive) | 34.3 µM (inactive) | 32.2 | 33 µM (inactive) | 18.6 µM (inactive) | –
2 | O=c1ccn(C/C=C/c2ccccc2)c(=S)n1C/C=C/c1ccccc1 | 54 µM (inactive) | 32.8 µM (inactive) | 89.1 µM (inactive) | > 100 µM (inactive) | > 100 µM (inactive) | 15.8 µM (inactive) | > 100 µM (inactive) | 31.3 µM (inactive) | > 100 µM (inactive) | 90.4 µM (inactive) | > 100 µM (inactive) | > 100 µM (inactive) | > 100 µM (inactive) | 17.7 µM (inactive) | – | 80 µM (inactive) | > 100 | > 100 µM (inactive) | 68.2 µM (inactive) | 28.6 µM (inactive)
3 | O=C(O)c1c(Cl)c(Cl)c(Cl)c(Cl)c1C(=O)Nc1ccc2cn[nH]c2c1 | > 100 µM (inactive) | > 100 µM (inactive) | > 100 µM (inactive) | > 100 µM (inactive) | > 100 µM (inactive) | 97.3 µM (inactive) | > 100 µM (inactive) | > 100 µM (inactive) | > 100 µM (inactive) | > 100 µM (inactive) | > 100 µM (inactive) | > 100 µM (inactive) | 48 µM (inactive) | > 100 µM (inactive) | > 100 µM (inactive) | > 100 µM (inactive) | > 100 | > 100 µM (inactive) | > 100 µM (inactive) | –
4 | O=C(O)c1ccccc1Sc1ccc(C=C2NC(=S)N(c3ccccc3)C2=O)s1 | 54.7 µM (inactive) | > 100 µM (inactive) | > 100 µM (inactive) | 39.6 µM (inactive) | > 100 µM (inactive) | 31.6 µM (inactive) | > 100 µM (inactive) | > 100 µM (inactive) | 44.4 µM (inactive) | 24.9 µM (inactive) | > 100 µM (inactive) | > 100 µM (inactive) | > 100 µM (inactive) | – | – | > 100 µM (inactive) | > 100 | > 100 µM (inactive) | > 100 µM (inactive) | > 100 µM (inactive)
5 | CC(C)=CCC[C@]1(C)CC[C@]2(C)C3CCC(=C(C)C)[C@@H](CCCO)[C@]3(C)CC[C@@]2(C)C1 (some centres undefined) | > 100 µM (inactive) | 24 µM (inactive) | > 100 µM (inactive) | 83 µM (inactive) | 43.1 µM (inactive) | – | > 100 µM (inactive) | 54.5 µM (inactive) | 95.7 µM (inactive) | > 100 µM (inactive) | > 100 µM (inactive) | > 100 µM (inactive) | 34 µM (inactive) | 52.6 µM (inactive) | – | 54.1 µM (inactive) | 34 | 82 µM (inactive) | > 100 µM (inactive) | –
6 | CN(C(=O)C12C3C4C1C1C2C3C41C(=O)O)C(C)(C)C (centres undefined) | > 100 µM (inactive) | > 100 µM (inactive) | – | > 100 µM (inactive) | > 100 µM (inactive) | > 100 µM (inactive) | > 100 µM (inactive) | > 100 µM (inactive) | > 100 µM (inactive) | > 100 µM (inactive) | > 100 µM (inactive) | > 100 µM (inactive) | > 100 µM (inactive) | > 100 µM (inactive) | > 100 µM (inactive) | > 100 µM (inactive) | > 100 | > 100 µM (inactive) | > 100 µM (inactive) | > 100 µM (inactive)
7 | COC1CCC(O)C(/C=C/[N+](=O)[O-])C1 (centres undefined) | 2.28 µM (inactive) | 2.01 µM (inactive) | – | 15.7 µM (inactive) | 10.6 µM (inactive) | 3.03 µM (inactive) | 6.24 µM (inactive) | 2.8 µM (inactive) | 16.2 µM (inactive) | 14.8 µM (inactive) | 15 µM (inactive) | 11.5 µM (inactive) | 3.64 µM (inactive) | 10.6 µM (inactive) | 4.4 µM (inactive) | 2.62 µM (inactive) | 1.82 | 3.37 µM (inactive) | 2.58 µM (inactive) | 1.54 µM (inactive)
8 | COCC1OC(OC2OCC3OC4(OCC(O)(C(C)OC)C5OCOC54)OC3C2OC)C(OC)C(O)C1OC1OC(C)C(OC)C(OC2OC(C)C3OC4(CC(O)C(OC5CC(OC6CC(C)([N+](=O)[O-])C(OC)C(C)O6)C(OC(=O)c6c(C)c(Cl)c(O)c(Cl)c6OC)C(C)O5)C(C)O4)OC3(C)C2O)C1O (centres undefined) | > 100 µM (inactive) | > 100 µM (inactive) | – | > 100 µM (inactive) | > 100 µM (inactive) | > 100 µM (inactive) | > 100 µM (inactive) | > 100 µM (inactive) | > 100 µM (inactive) | > 100 µM (inactive) | > 100 µM (inactive) | > 100 µM (inactive) | > 100 µM (inactive) | > 100 µM (inactive) | > 100 µM (inactive) | > 100 µM (inactive) | > 100 | > 100 µM (inactive) | > 100 µM (inactive) | > 100 µM (inactive)
9 | O=c1ccc2c(Cl)sc(Cl)c2[nH]1 | – | > 100 µM (inactive) | 43.8 µM (inactive) | > 100 µM (inactive) | > 100 µM (inactive) | > 100 µM (inactive) | > 100 µM (inactive) | > 100 µM (inactive) | > 100 µM (inactive) | > 100 µM (inactive) | > 100 µM (inactive) | > 100 µM (inactive) | > 100 µM (inactive) | > 100 µM (inactive) | – | > 100 µM (inactive) | > 100 | > 100 µM (inactive) | > 100 µM (inactive) | > 100 µM (inactive)
10 | c1c[nH]c(-c2ccc(-c3ccc[nH]3)c3nsnc23)c1 | 1.53 µM (inactive) | > 61 µM (inactive) | – | > 52.6 µM (inactive) | > 58.1 µM (inactive) | > 26.8 µM (inactive) | > 47.5 µM (inactive) | > 54.5 µM (inactive) | > 66.7 µM (inactive) | 0.612 µM (active) | > 51.6 µM (inactive) | > 67.6 µM (inactive) | > 56.8 µM (inactive) | > 47.5 µM (inactive) | > 56.9 µM (inactive) | 17.3 µM (inactive) | 0.245 | > 53.6 µM (inactive) | 27 µM (inactive) | > 100 µM (inactive)
11 | Cc1ccc(/N=N/C(=N/NC(=O)c2cc(Cl)ccc2C(=O)c2ccccc2)c2ccc(N(CCC#N)CCC#N)cc2C)cc1 | 9.14 µM (inactive) | 15.9 µM (inactive) | 15.7 µM (inactive) | 22 µM (inactive) | 14.9 µM (inactive) | 17.4 µM (inactive) | 12.9 µM (inactive) | 9.75 µM (inactive) | 20.4 µM (inactive) | 10.4 µM (inactive) | 21.1 µM (inactive) | 33.2 µM (inactive) | 11.5 µM (inactive) | 11.5 µM (inactive) | – | 2.41 µM (inactive) | 7.55 | 10.8 µM (inactive) | 15.4 µM (inactive) | –
